According to patent US11592451B2, “Method for the preselection of drugs for protein misfolding diseases” (betaSENSE GmbH, priority 2016, dated 2023):
“Also recorded” adds a separate entry of the source.

Experiments:
Aβ1-42 = target: T1, Aβ1-42 (Homo sapiens, UniProt P05067); assay: ATR-FTIR sensor drug-screening assay: synthetic Aβ1-42 captured on antibody A8978 terminated germanium, auto-induced fibrilization monitored by amide I band; assay type: biochemical
T1 construct: Amyloid-beta-Protein fragment 1-42; purchased Sigma-Aldrich A9810; host or cells: synthetic peptide
Source text: The present invention is based on the detection of secondary structural changes induced by the potential drug by means of vibrational spectroscopy. […] Instead of a 70V (Bruker) we employed an 80V FTIR spectrometer (Bruker) to improve the signal to noise ratio of the measurements. As internal reflection element germanium crystal were chemically modified with NHS-silanes, which function as anchors for the covalent attachment of the desired antibodies. After blocking the surface with casein the surface is ready for capturing of the target protein (Tau or Aβ1-42). […] The target protein was analyzed in the presence of the potential drug and the effect was monitored by the change in the amide I band. […] Another example is the study of the second important biomarker Aβ1-42. Since the developed sensor is universal, the antibody A8978 against the epitope 13-28 of Aβ1-42 could be applied for the analysis of the potential drug berberine. To monitor a potential effect of berberine the surface was loaded with synthetic Aβ1-42.
The human Aβ-peptide was purchased from Sigma-Aldrich (A9810, Amyloid-beta-Protein fragment 1-42).
IR-measurements were performed on a Vertex 80V spectrometer (Bruker Optics GmbH, Ettlingen, Germany) with liquid nitrogen cooled mercury-cadmium-telluride (MCT) detector. Double-sided interferograms were recorded in forward-backward interferometer movement at a 80 kHz data rate with a spectral resolution of 2 cm^−1, Blackman-Harris-3-Term-apodisation, Mertz-phase correction and 4 times zero filling. Reference spectra were recorded as an average of 1000, sample spectra of 200 interferograms. Recording reference single channel spectra of the blank sensor, sensor with 2-propanol, the silanized surface, the buffers, antibody or casein coated surface in equilibrium states enabled high sensitivity difference spectroscopy based on Lambert-Beer law (E=−log(I/I0). The absorbance of the state change is the negative decadic logarithm of the intensity relation before and after the change.
The antibody A8979 (Sigma-aldrich) was employed for capturing the Aβ-peptide (Nabers et al., Anal. Chem. 88(5):2755-62 doi:10.1021/acs.analchem.5b04286 (2016)). The Aβ-peptide (Aβ1-42, synthetic, Sigma-aldrich, Taufkrichen, Germany) was monomerized by incubation with hexafluoro-2-propanol as described elsewhere (Nabers et al., J. Biophotonics 9(3):224-34 doi:10.1002/jbio.201400145 (2016)).

memory function = settings: rat models; cited from earlier work
Tau protein = assay: ATR-FTIR sensor drug-screening assay: Tau protein captured from human CSF on antibody Tau-5 terminated germanium, amide I band monitored; assay type: biochemical; settings: Tau extracted from CSF; methylene blue 50 μM, berberine 100 μM
Source text: The present invention is based on the detection of secondary structural changes induced by the potential drug by means of vibrational spectroscopy. […] Instead of a 70V (Bruker) we employed an 80V FTIR spectrometer (Bruker) to improve the signal to noise ratio of the measurements. As internal reflection element germanium crystal were chemically modified with NHS-silanes, which function as anchors for the covalent attachment of the desired antibodies. After blocking the surface with casein the surface is ready for capturing of the target protein (Tau or Aβ1-42). The Tau protein was directly extracted out of human CSF. […] The target protein was analyzed in the presence of the potential drug and the effect was monitored by the change in the amide I band. […]
IR-measurements were performed on a Vertex 80V spectrometer (Bruker Optics GmbH, Ettlingen, Germany) with liquid nitrogen cooled mercury-cadmium-telluride (MCT) detector. Double-sided interferograms were recorded in forward-backward interferometer movement at a 80 kHz data rate with a spectral resolution of 2 cm^−1, Blackman-Harris-3-Term-apodisation, Mertz-phase correction and 4 times zero filling. Reference spectra were recorded as an average of 1000, sample spectra of 200 interferograms. […]

T1 sequence (P05067 672-713 limits assumed): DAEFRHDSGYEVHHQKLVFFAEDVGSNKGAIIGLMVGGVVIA

- shoulder of amide I band (β-sheet enriched isoforms) of Aβ1-42 in presence of drug (Aβ1-42; 100 μM berberine): 1634 cm⁻¹
- shift of the amide I maximum of Aβ1-42 versus no drug (Aβ1-42; 100 μM berberine, 18 h): 25 cm⁻¹
- amide I maximum of Aβ1-42 in presence of drug (Aβ1-42; 100 μM berberine, 18 h total, without drug 1634 cm^−1): 1659 cm⁻¹
Compound: COc1ccc2cc3[n+](cc2c1OC)CCc1cc2c(cc1-3)OCO2 [berberine, berberine chloride]
- effect on secondary structure distribution / fibrilization of Aβ1-42 (Aβ1-42; synthetic Aβ1-42, drug 100 μM, same conditions for both drugs): shifts the distribution mainly to α-helix; also recorded: directly decelerates the aggregation process of Aβ1-42; also recorded: decelerates the auto-induced fibrilization of Aβ1-42
- effect on memory function (memory function): positive effect on the memory function
- effect on secondary structure distribution of Tau protein (Tau protein): did not change the secondary structure distribution; also recorded: no significant effect on the Tau protein
